biological target: T1, 5HT-transporter (Homo sapiens, UniProt P31645); assay: Binding experiment for the 5HT-transporter ([3H]paroxetine, human platelet membranes); conditions: [3H]paroxetine 0.5 nM, 60 min at 25° C.
T1 construct: Human platelet membranes (Oceanix Biosciences Corporation, Hanover, Md., USA) were thawed; tissue Oceanix Biosciences Corporation, Hanover, Md., USA; host or cells: human platelet membranes
Protocol: (§1) The interaction of the compounds of Formula (I) with α2C-adrenoceptor receptors was assessed in in vitro radioligand binding experiments. In general, a low concentration of a radioligand with a high binding affinity for a particular receptor or transporter is incubated with a sample of a tissue preparation enriched in a particular receptor or transporter or with a preparation of cells expressing cloned human receptors in a buffered medium. During the incubation, the radioligand binds to the receptor or transporter. When equilibrium of binding is reached, the receptor bound radioactivity is separated from the non-bound radioactivity, and the receptor- or transporter-bound activity is counted. The interaction of the test compounds with the receptor is assessed in competition binding experiments. Various concentrations of the test compound are added to the incubation mixture containing the receptor- or transporter preparation and the radioligand. The test compound in proportion to its binding affinity and its concentration inhibits binding of the radioligand. The radioligand used for […] receptor binding was [^3H]-raulwolscine.
Human platelet membranes (Oceanix Biosciences Corporation, Hanover, Md., USA) were thawed, diluted in buffer (Tris-HCl 50 mM, 120 mM NaCl and 5 mM KCl) and quickly (max 3 s) homogenised with an Ultraturrax homogenizer. […] Incubation was stopped by rapid filtration of the incubation mixture over GF/B filters, pre-wetted with 0.1% polyethyleneamine, using a Filtermate196 harvester (Packard, Meriden, Conn.). Filters were rinsed extensively with ice-cold buffer and radioactivity on the filters was counted in a Topcount liquid scintillation counter (Packard, Meriden, Conn.). Data were expressed as cpm. Imipramine (at 1 μM final concentration) was used to determine the non-specific binding.
(§2) Data from assays in the presence of compound were calculated as a percentage of total binding measured in the absence of test compound. Inhibition curves, plotting percent of total binding versus the log value of the concentration of the test compound, were automatically generated, and sigmoidal inhibition curves were fitted using non-linear regression. The pIC50 values of test compounds were derived from individual curves.

T1 sequence (P31645 whole entry): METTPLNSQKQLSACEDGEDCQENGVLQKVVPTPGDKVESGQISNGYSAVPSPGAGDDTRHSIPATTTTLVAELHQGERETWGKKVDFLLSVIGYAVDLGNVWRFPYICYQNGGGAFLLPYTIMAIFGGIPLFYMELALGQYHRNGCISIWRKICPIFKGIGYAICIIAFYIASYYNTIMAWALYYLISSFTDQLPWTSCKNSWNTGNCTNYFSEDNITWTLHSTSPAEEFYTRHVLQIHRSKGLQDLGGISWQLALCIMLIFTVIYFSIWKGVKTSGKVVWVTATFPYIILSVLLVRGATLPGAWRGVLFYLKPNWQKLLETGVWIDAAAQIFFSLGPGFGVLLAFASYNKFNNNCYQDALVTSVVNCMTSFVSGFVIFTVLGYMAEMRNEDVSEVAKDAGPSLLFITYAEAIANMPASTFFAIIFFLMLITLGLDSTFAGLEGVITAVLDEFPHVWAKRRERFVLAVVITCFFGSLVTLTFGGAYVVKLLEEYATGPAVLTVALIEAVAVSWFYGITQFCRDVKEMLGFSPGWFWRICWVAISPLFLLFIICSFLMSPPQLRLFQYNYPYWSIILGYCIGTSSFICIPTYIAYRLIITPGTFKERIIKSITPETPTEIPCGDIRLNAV

Structure (SMILES)	h-5HTT pIC50
O=C(NCc1ccc(-n2ccnc(NC3CCN(Cc4ccc5ccccc5c4)CC3)c2=O)cc1)c1ccc(F)cc1 [1-76]	8.2
O=C(NCc1ccc(-n2ccnc(NC3CCN(Cc4ccc5ccccc5c4)CC3)c2=O)cc1)NCC1CCCCC1 [1-41]	7.2
O=c1c(NC2CCN(Cc3ccc4ccccc4c3)CC2)nccn1-c1ccc(CN2CCC(F)CC2)cc1 [2-12]	8.4

same assay, conditions: [3H]paroxetine 0.5 nM, 60 min at 25° C., read-out: h-5HTT pIC50 (converted)

Structure (SMILES)	IC50
O=c1c(NC2CCN(Cc3ccc4ccccc4c3)CC2)nccn1CCCNCCOc1ccccc1 [1-77]	63.1 nM
COCCC(=O)NCc1ccc(-n2ccnc(NC3CCN(Cc4ccc5ccccc5c4)CC3)c2=O)cc1 [1-30]	15.8 nM
O=c1c(NC2CCN(Cc3ccc4ccccc4c3)CC2)nccn1CCCOc1ccccc1 [3-10]	15.8 nM
O=c1[nH]c(-c2cccc(CN3CCC(F)CC3)c2)c(Cl)nc1NC1CCN(Cc2ccc3ccccc3c2)CC1 [7-06]	1000 nM
COc1ccc(Cn2c(-c3ccc(CNCC4CCCO4)cc3)c(Cl)nc(NC3CCN(Cc4ccc5ccccc5c4)CC3)c2=O)cc1 (stereo not drawn) [8-08]	63.1 nM
O=c1c(NC2CCN(Cc3ccc4ccccc4c3)CC2)nccn1-c1cncnc1 [6-08]	200 nM
CC(=O)Cn1ccnc(NC2CCN(Cc3ccc4ccccc4c3)CC2)c1=O [5-03]	1000 nM
O=C(Cn1ccnc(NC2CCN(Cc3ccc4ccccc4c3)CC2)c1=O)Nc1ccccc1 [1-64]	126 nM
O=C1c2ccccc2C(=O)N1CCCn1ccnc(NC2CCN(Cc3cnc4ccccc4c3)CC2)c1=O [9-27]	631 nM
CN1CCN(Cc2cccc(-c3[nH]c(=O)c(NC4CCN(Cc5ccc6ccccc6c5)CC4)nc3Cl)c2)CC1 [7-10]	200 nM
CCCn1ccnc(NC2CCN(Cc3ccc4ccccc4c3)CC2)c1=O [5-02]	100 nM
O=C(NCCCn1ccnc(NC2CCN(Cc3ccc4ccccc4c3)CC2)c1=O)c1ccccc1 [1-74]	126 nM
CCOC(=O)CCCn1ccnc(NC2CCN(Cc3ccc4ccccc4c3)CC2)c1=O [3-06]	79.4 nM

biological target: T2, human adrenergic-α2A receptor (Homo sapiens, UniProt P08913); assay: Radioligand binding experiment for hα2A-adrenergic receptor ([3H]raulwolscine); conditions: [3H]raulwolscine 1 nM, 60 minutes at 25° C.
T2 construct: expressed in transfected cells; host or cells: CHO cells, stably transfected; membrane preparation
T2 sequence (P08913 1-465): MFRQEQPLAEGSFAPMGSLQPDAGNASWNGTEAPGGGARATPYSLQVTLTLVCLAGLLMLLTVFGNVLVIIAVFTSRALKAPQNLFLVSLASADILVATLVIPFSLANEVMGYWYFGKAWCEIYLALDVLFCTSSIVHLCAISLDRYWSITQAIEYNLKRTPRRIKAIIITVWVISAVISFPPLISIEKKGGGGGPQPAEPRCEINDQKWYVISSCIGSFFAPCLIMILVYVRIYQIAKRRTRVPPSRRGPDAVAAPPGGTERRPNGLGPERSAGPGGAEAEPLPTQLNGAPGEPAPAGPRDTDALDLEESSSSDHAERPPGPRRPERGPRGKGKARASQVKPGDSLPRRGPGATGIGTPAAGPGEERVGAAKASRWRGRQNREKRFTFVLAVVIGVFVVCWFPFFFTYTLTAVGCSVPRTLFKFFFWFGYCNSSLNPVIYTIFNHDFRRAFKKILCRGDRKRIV
Protocol: as §1
(§3) CHO cells, stabile transfected with human adrenergic-α2A, -α2B or α2C receptor cDNA, were cultured in Dulbecco's Modified Eagle's Medium (DMEM)/Nutrient mixture Ham's F12 (ratio 1:1)(Gibco, Gent-Belgium) supplemented with 10% heat inactivated fetal calf serum (Life Technologies, Merelbeke-Belgium) and antibiotics (100 IU/ml penicillin G, 100 μg/ml streptomycin sulphate, 110 μg/ml pyruvic acid and 100 μg/ml L-glutamine). One day before collection, cells were induced with 5 mM sodiumbutyrate. Upon 80-90% of confluence, cells were scraped in phosphate buffered saline without Ca^2+ and Mg^2+ and collected by centrifugation at 1500×g for 10 minutes. The cells were homogenised in Tris-HCl 50 mM using an Ultraturrax homogenizer and centrifuged for 10 minutes at 23,500×g. The pellet was washed once by resuspension and rehomogenization and the final pellet was resuspended in Tris-HCl, divided in 1 ml aliquots and stored at −70° C.
(§4) Membranes were thawed and re-homogenized in incubation buffer (glycylglycine 25 mM, pH 8.0). In a total volume of 500 μl, 2-10 μg protein was incubated with [^3H]raulwolscine (NET-722) (New England Nuclear, USA) (1 nM final concentration) with or without competitor for 60 minutes at 25° C. followed by rapid filtration over GF/B filter using a Filtermate196 harvester (Packard, Meriden, Conn.). Filters were rinsed extensively with ice-cold rinsing buffer (Tris-HCl 50 mM pH 7.4). Filter-bound radioactivity was determined by scintillation counting in a Topcount (Packard, Meriden, Conn.) and results were expressed as counts per minute (cpm). Non-specific binding was determined in the presence of 1 μM oxymetazoline for hα2A- and hα2B receptors and 1 μM spiroxatrine for hα2C receptors.
as §2

Structure (SMILES)	h-α2A pIC50
O=C(NCc1ccc(-n2ccnc(NC3CCN(Cc4ccc5ccccc5c4)CC3)c2=O)cc1)c1ccc(F)cc1 [1-76]	6.2
O=C(NCc1ccc(-n2ccnc(NC3CCN(Cc4ccc5ccccc5c4)CC3)c2=O)cc1)NCC1CCCCC1 [1-41]	6.2
O=c1c(NC2CCN(Cc3ccc4ccccc4c3)CC2)nccn1-c1ccc(CN2CCC(F)CC2)cc1 [2-12]	7.3

same assay, conditions: [3H]raulwolscine 1 nM, 60 minutes at 25° C.; read-out: h-α2A pIC50 (converted)

Structure (SMILES)	IC50
O=c1c(NC2CCN(Cc3ccc4ccccc4c3)CC2)nccn1CCCNCCOc1ccccc1 [1-77]	398 nM
COCCC(=O)NCc1ccc(-n2ccnc(NC3CCN(Cc4ccc5ccccc5c4)CC3)c2=O)cc1 [1-30]	316 nM
O=c1c(NC2CCN(Cc3ccc4ccccc4c3)CC2)nccn1CCCOc1ccccc1 [3-10]	126 nM
O=c1[nH]c(-c2cccc(CN3CCC(F)CC3)c2)c(Cl)nc1NC1CCN(Cc2ccc3ccccc3c2)CC1 [7-06]	1260 nM
COc1ccc(Cn2c(-c3ccc(CNCC4CCCO4)cc3)c(Cl)nc(NC3CCN(Cc4ccc5ccccc5c4)CC3)c2=O)cc1 (stereo not drawn) [8-08]	316 nM
O=c1c(NC2CCN(Cc3ccc4ccccc4c3)CC2)nccn1-c1cncnc1 [6-08]	631 nM
CC(=O)Cn1ccnc(NC2CCN(Cc3ccc4ccccc4c3)CC2)c1=O [5-03]	200 nM
O=C(Cn1ccnc(NC2CCN(Cc3ccc4ccccc4c3)CC2)c1=O)Nc1ccccc1 [1-64]	158 nM
O=C1c2ccccc2C(=O)N1CCCn1ccnc(NC2CCN(Cc3cnc4ccccc4c3)CC2)c1=O [9-27]	> 10000 nM
CN1CCN(Cc2cccc(-c3[nH]c(=O)c(NC4CCN(Cc5ccc6ccccc6c5)CC4)nc3Cl)c2)CC1 [7-10]	631 nM
CCCn1ccnc(NC2CCN(Cc3ccc4ccccc4c3)CC2)c1=O [5-02]	158 nM
O=C(NCCCn1ccnc(NC2CCN(Cc3ccc4ccccc4c3)CC2)c1=O)c1ccccc1 [1-74]	794 nM
CCOC(=O)CCCn1ccnc(NC2CCN(Cc3ccc4ccccc4c3)CC2)c1=O [3-06]	200 nM

biological target: T3, human adrenergic-α2C receptor (Homo sapiens, UniProt P18825); assay: Radioligand binding experiment for hα2C-adrenoceptor ([3H]raulwolscine); conditions: [3H]raulwolscine 1 nM, 60 minutes at 25° C.
T3 construct: expressed in transfected cells; host or cells: CHO cells, stably transfected; membrane preparation
T3 sequence (P18825 1-462): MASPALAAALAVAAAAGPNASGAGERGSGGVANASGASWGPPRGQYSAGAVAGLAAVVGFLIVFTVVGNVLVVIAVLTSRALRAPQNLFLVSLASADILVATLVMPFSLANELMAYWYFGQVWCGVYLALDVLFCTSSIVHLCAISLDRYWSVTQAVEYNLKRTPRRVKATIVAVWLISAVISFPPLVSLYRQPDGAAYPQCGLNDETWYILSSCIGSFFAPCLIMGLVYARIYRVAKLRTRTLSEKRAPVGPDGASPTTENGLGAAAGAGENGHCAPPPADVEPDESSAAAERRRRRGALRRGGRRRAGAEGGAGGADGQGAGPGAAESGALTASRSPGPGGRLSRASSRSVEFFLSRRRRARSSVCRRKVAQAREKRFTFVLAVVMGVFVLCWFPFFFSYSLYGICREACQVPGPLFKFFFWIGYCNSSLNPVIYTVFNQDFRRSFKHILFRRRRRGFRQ
Protocol: as §1, §3, §4, §2

Structure (SMILES)	h-α2C pIC50
O=C(NCc1ccc(-n2ccnc(NC3CCN(Cc4ccc5ccccc5c4)CC3)c2=O)cc1)c1ccc(F)cc1 [1-76]	8.1
O=C(NCc1ccc(-n2ccnc(NC3CCN(Cc4ccc5ccccc5c4)CC3)c2=O)cc1)NCC1CCCCC1 [1-41]	7.2
O=c1c(NC2CCN(Cc3ccc4ccccc4c3)CC2)nccn1-c1ccc(CN2CCC(F)CC2)cc1 [2-12]	8.1

same assay, conditions: [3H]raulwolscine 1 nM, 60 minutes at 25° C.; read-out: h-α2C pIC50 (converted)

Structure (SMILES)	IC50
O=c1c(NC2CCN(Cc3ccc4ccccc4c3)CC2)nccn1CCCNCCOc1ccccc1 [1-77]	25.1 nM
COCCC(=O)NCc1ccc(-n2ccnc(NC3CCN(Cc4ccc5ccccc5c4)CC3)c2=O)cc1 [1-30]	31.6 nM
O=c1c(NC2CCN(Cc3ccc4ccccc4c3)CC2)nccn1CCCOc1ccccc1 [3-10]	50.1 nM
O=c1[nH]c(-c2cccc(CN3CCC(F)CC3)c2)c(Cl)nc1NC1CCN(Cc2ccc3ccccc3c2)CC1 [7-06]	251 nM
COc1ccc(Cn2c(-c3ccc(CNCC4CCCO4)cc3)c(Cl)nc(NC3CCN(Cc4ccc5ccccc5c4)CC3)c2=O)cc1 (stereo not drawn) [8-08]	200 nM
O=c1c(NC2CCN(Cc3ccc4ccccc4c3)CC2)nccn1-c1cncnc1 [6-08]	200 nM
CC(=O)Cn1ccnc(NC2CCN(Cc3ccc4ccccc4c3)CC2)c1=O [5-03]	100 nM
O=C(Cn1ccnc(NC2CCN(Cc3ccc4ccccc4c3)CC2)c1=O)Nc1ccccc1 [1-64]	31.6 nM
O=C1c2ccccc2C(=O)N1CCCn1ccnc(NC2CCN(Cc3cnc4ccccc4c3)CC2)c1=O [9-27]	794 nM
CN1CCN(Cc2cccc(-c3[nH]c(=O)c(NC4CCN(Cc5ccc6ccccc6c5)CC4)nc3Cl)c2)CC1 [7-10]	100 nM
CCCn1ccnc(NC2CCN(Cc3ccc4ccccc4c3)CC2)c1=O [5-02]	63.1 nM
O=C(NCCCn1ccnc(NC2CCN(Cc3ccc4ccccc4c3)CC2)c1=O)c1ccccc1 [1-74]	31.6 nM
CCOC(=O)CCCn1ccnc(NC2CCN(Cc3ccc4ccccc4c3)CC2)c1=O [3-06]	63.1 nM

Source: patent publication US20080269251A1, “Substituted Pyrazinone Derivatives as Alpha2C-Adrenoreceptor Antagonists” (priority 2005, published 2008)
